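Cells were grown in 96-well plates and exposed to each compound for 48 hours at five concentrations; endpoints were interpolated linearly between bracketing concentrations, or set to the highest concentration if not reached. GI50 is the concentration that inhibits growth by half.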 Active and inactive are the calls of the source. No stated cut-off is given here; in the data, active = GI50 up to about 1.1 µM and inactive = higher.
Experiments:
Experiment in all cases: NCI anticancer screen, dose series, 48 h
LOX IMVI = test system: LOX IMVI
NCI-H23 = test system: NCI-H23
NCI-H226 = test system: NCI-H226
KM12 = test system: KM12
MDA-N = test system: MDA-N
CAKI-1 = test system: CAKI-1
SNB-19 = test system: SNB-19
SK-MEL-5 = test system: SK-MEL-5
UO-31 = test system: UO-31
M14 = test system: M14
COLO 205 = test system: COLO 205
PC-3 = test system: PC-3
SK-MEL-28 = test system: SK-MEL-28
CCRF-CEM = test system: CCRF-CEM
SF-295 = test system: SF-295
RPMI-8226 = test system: RPMI-8226
Hs-578T = test system: Hs-578T
NCI/ADR-RES = test system: NCI/ADR-RES
HOP-62 = test system: HOP-62
HCC 2998 = test system: HCC 2998

Measured: GI50

COc1ccc(CCN(C)C(=O)CC(C#N)(c2ccccc2)c2ccc(OC)c(OC)c2)cc1OC (stereo not given)
inactive: LOX IMVI > 100 µM | NCI-H23 > 100 µM | NCI-H226 > 100 µM | KM12 > 100 µM | MDA-N > 100 µM | CAKI-1 > 100 µM | SNB-19 > 100 µM | SK-MEL-5 98.4 µM | UO-31 > 74.6 µM | M14 > 100 µM | COLO 205 > 100 µM | PC-3 > 100 µM | SK-MEL-28 > 100 µM | CCRF-CEM > 100 µM | SF-295 > 100 µM | RPMI-8226 > 46.9 µM | Hs-578T > 100 µM | NCI/ADR-RES > 100 µM | HOP-62 > 100 µM

O=C1CCCc2cc3c(cc21)CC1(Cc2ccccc2C1)C3
inactive: LOX IMVI 6.53 µM | NCI-H23 6.78 µM | NCI-H226 2.03 µM | KM12 2.5 µM | MDA-N 1.42 µM | SK-MEL-5 4.89 µM | UO-31 1.46 µM | M14 4.33 µM | COLO 205 1.93 µM | HCC 2998 16.1 µM | PC-3 > 100 µM | SF-295 4.03 µM | RPMI-8226 4.35 µM | Hs-578T 7.59 µM | NCI/ADR-RES 6 µM | HOP-62 6.04 µM

CCOC(=O)N(C)C(=C(F)F)C(F)(F)F
inactive: LOX IMVI 23 µM | NCI-H23 20.5 µM | NCI-H226 19.2 µM | KM12 35 µM | MDA-N 18.5 µM | SK-MEL-5 15.7 µM | UO-31 32.7 µM | M14 16.8 µM | COLO 205 21 µM | HCC 2998 20.6 µM | PC-3 30.9 µM | SK-MEL-28 20 µM | CCRF-CEM 19.8 µM | SF-295 57.5 µM | RPMI-8226 16.4 µM | Hs-578T 30.4 µM | NCI/ADR-RES 34.6 µM | HOP-62 25.2 µM

Cc1ccc(S(=O)(=O)N2CCSCCN(S(=O)(=O)c3ccc(C)cc3)CCN(S(=O)(=O)c3ccc(C)cc3)CC2)cc1
inactive: NCI-H23 79.4 µM | NCI-H226 > 100 µM | MDA-N > 100 µM | SNB-19 29.2 µM | SK-MEL-5 > 100 µM | UO-31 92.7 µM | M14 > 100 µM | COLO 205 > 100 µM | HCC 2998 > 100 µM | SK-MEL-28 > 100 µM | CCRF-CEM > 100 µM | SF-295 26.4 µM | RPMI-8226 > 100 µM | Hs-578T 25.7 µM | NCI/ADR-RES > 100 µM | HOP-62 20.7 µM

C=CCCCC1SC2=C(CC)CCCN2C1=O (stereo not given)
inactive: LOX IMVI 89.7 µM | NCI-H23 49.1 µM | NCI-H226 > 100 µM | KM12 86.7 µM | MDA-N 70.1 µM | CAKI-1 > 100 µM | SNB-19 73.5 µM | SK-MEL-5 36.1 µM | UO-31 67.5 µM | M14 > 100 µM | COLO 205 54 µM | PC-3 45.2 µM | SK-MEL-28 76.6 µM | SF-295 64 µM | RPMI-8226 38.2 µM | Hs-578T 47.9 µM | NCI/ADR-RES 31.6 µM | HOP-62 > 100 µM

c1cc2c(c(NC3=NCCO3)c1)CCC2
inactive: LOX IMVI > 100 µM | NCI-H23 > 100 µM | NCI-H226 > 100 µM | KM12 > 100 µM | MDA-N 84.5 µM | CAKI-1 > 100 µM | SNB-19 > 100 µM | SK-MEL-5 > 100 µM | UO-31 > 100 µM | M14 > 100 µM | COLO 205 > 100 µM | PC-3 67 µM | SK-MEL-28 > 100 µM | CCRF-CEM > 100 µM | SF-295 > 100 µM | RPMI-8226 > 100 µM | Hs-578T 78.2 µM | NCI/ADR-RES > 100 µM | HOP-62 > 100 µM

CC1=C[C@@H]2Cc3nc4cc(Cl)ccc4c(N)c3[C@H](C1)C2
inactive: LOX IMVI 5.38 µM | NCI-H23 8.22 µM | NCI-H226 8.38 µM | KM12 7.6 µM | MDA-N 15.5 µM | CAKI-1 3.89 µM | SNB-19 11.8 µM | SK-MEL-5 2.84 µM | UO-31 5.06 µM | M14 4.57 µM | COLO 205 1.48 µM | PC-3 12.5 µM | SK-MEL-28 12.3 µM | CCRF-CEM 12.2 µM | SF-295 6.17 µM | RPMI-8226 3.66 µM | Hs-578T 2.42 µM | NCI/ADR-RES 11.7 µM | HOP-62 11.2 µM

CC(=O)Nc1cc(Nc2cc(O)nc(O)n2)ccc1C
inactive: LOX IMVI > 100 µM | NCI-H226 > 100 µM | KM12 > 100 µM | MDA-N > 100 µM | SNB-19 > 100 µM | SK-MEL-5 > 100 µM | UO-31 > 100 µM | M14 > 100 µM | COLO 205 > 100 µM | HCC 2998 > 100 µM | PC-3 > 100 µM | SK-MEL-28 > 100 µM | CCRF-CEM > 100 µM | SF-295 > 100 µM | RPMI-8226 > 100 µM | Hs-578T > 100 µM | NCI/ADR-RES > 100 µM | HOP-62 > 100 µM

Cc1ccc(S(=O)(=O)C2=Cc3ccccc3C2(O)c2ccccc2)cc1 (stereo not given)
inactive: LOX IMVI 17.6 µM | NCI-H23 37.2 µM | NCI-H226 29.3 µM | KM12 21.4 µM | MDA-N 18.7 µM | SNB-19 43.8 µM | SK-MEL-5 16.6 µM | M14 13.5 µM | COLO 205 24.5 µM | HCC 2998 10.4 µM | PC-3 27.4 µM | SK-MEL-28 16.3 µM | CCRF-CEM 15.7 µM | SF-295 25.4 µM | RPMI-8226 15.8 µM | Hs-578T 22.6 µM | NCI/ADR-RES 25.5 µM | HOP-62 > 10 µM

C=CCN1C(=O)CC(=O)N(NC2=NNC3(C(=O)N2)c2ccccc2-c2ccccc23)C1=S
inactive: LOX IMVI 42.7 µM | NCI-H23 29.2 µM | NCI-H226 13.8 µM | MDA-N > 100 µM | CAKI-1 48.3 µM | SNB-19 48.8 µM | SK-MEL-5 31.4 µM | UO-31 31.8 µM | M14 > 100 µM | COLO 205 21.7 µM | HCC 2998 38.6 µM | PC-3 23.9 µM | SK-MEL-28 49.9 µM | CCRF-CEM 34 µM | SF-295 37 µM | Hs-578T 13.6 µM | NCI/ADR-RES 25.4 µM | HOP-62 26.7 µM

CC(=O)c1cnc2oc3ccc(O)cc3c2c1-c1ccccc1
inactive: LOX IMVI 99.1 µM | NCI-H23 46.1 µM | NCI-H226 35.6 µM | MDA-N 40.1 µM | CAKI-1 29.4 µM | SNB-19 37.3 µM | SK-MEL-5 22.2 µM | M14 > 100 µM | COLO 205 30.3 µM | HCC 2998 38 µM | PC-3 21.4 µM | SK-MEL-28 17.5 µM | CCRF-CEM 45 µM | SF-295 30 µM | RPMI-8226 18.8 µM | Hs-578T 14.2 µM

Source: ChEMBL document CHEMBL1201862, “PubChem BioAssay data set” (2004)
